Source: patent publication US20050026866A1 (priority 2002, published 2005)
Read-outs that look alike come from different tables or passages of the source.

Experiments:
Type in all cases: cell-based
[1] = test system: Bordetella attachment and invasion into human melanoma cell line Skmel-23/C22
Procedure: Bordetella pertussis was cultured for 48-72 h on Bordet-Gengou agar plates (Remel, Inc.) in a 37° C. incubator. Prior to exposure of bacteria to mammalian cells (15-30 minutes), the bacteria were loop-transferred to Luria-Bertani (LB) liquid growth medium and adjusted to a concentration of 10^9 cfu/ml (OD600=0.5). Human Skmel-23/C22 metastatic melanoma cells, normal human melanocytes, or normal human fibroblasts were inoculated into Corning 12 well tissue culture plates (2-4×10^4 cells/well) in antibiotic-free DMEM growth medium supplemented with 10% fetal bovine serum, and placed in a gassed, humidified incubator, at 37° C. After 24 h, melanoma cells were fed with 1 ml fresh medium, and 15-20 h later, Bordetella pertussis strain 536 was added as described below. Potential inhibitors of Bordetella attachment and invasion of melanoma cells were added immediately before, or up to 2 h before addition of bacteria, as noted. […] Melanoma cells were then plated onto Bordet-Gengou agar plates in serial dilutions, incubated at 37° for 4d, and Bordetella pertussis were quantitated by colony counts as ‘colony forming units’ (cfu). […]
Structural requirements on cancer cells for attachment and invasion of B. pertussis. Quantitative invasion assays were carried out with various additives to investigate structural requirements on human melanoma cells for attachment and invasion of B. pertussis. […]

[2] = test system: SKMel-23 human melanoma cells; details: L-histidine alone, no B. pertussis strain
Procedure: Skmel-23/C22 human melanoma cells were cultured 15 h with or without the addition of B. pertussis to the culture medium.
(§1) Cancer cells tested were human carcinomas of the breast, lung, and kidney, and melanoma. Toxicity of B. pertussis strain 536, but not of Tohama I, was dependent on the simultaneous addition of rich nutrient broth such as Luria-Bertani bacterial growth medium, or amino acid-rich broths such as tryptone or casamino acids. […] The principal active ingredient in these broths was the amino acid histidine. […] Of 18 amino acids tested, only histidine induced a Bordetella-mediated cytotoxic/lytic effect.

[3] = test system: human carcinomas of the breast, lung, and kidney, and melanoma; details: without bacteria
Description: as §1

Compound: C[C@H](O)[C@@H](O)[C@@H](O)[C@H](O)C=O [L-fucose]
- Bordetella (cfu/well) (% Control +/− S.D.) ([1]; 0.2% wt/vol, added 5 min. prior to bacteria, implied target fucosylated structures): 52 ± 14 % Control

Compound: N[C@@H](Cc1c[nH]cn1)C(=O)O [L-histidine]
- melanoma cells/well (24 h post-treatment) [2]: 1.7 ± .07 × 10^5 melanoma cells/well
- melanoma cells/well, % untreated cultures ([2]; 24 h post-treatment): 106 % untreated cultures
- toxicity of histidine alone [3]: no toxicity

Compound: Arg-Gly-Asp [RGD]
- Bordetella (cfu/well) (% Control +/− S.D.) ([1]; 0.8 mg/ml, added 2 h prior to bacteria, implied target Arg-Gly-Asp tripeptide sequence): 50 ± 5 % Control
